This passage reports remaining activity results from patent US20110313156A1 (BOEHRINGER INGELHEIM INTERNATIONAL GMBH, priority 2008, published 2011).

This experiment deals with T1, His6-PDK1 (aa 52-556) (Homo sapiens, UniProt O15530).
T1 construct: 15 μL His6-PDK1 (aa 52-556) 3.33 ng/well); host or cells: baculovirus-infected insect cells
T1 sequence (O15530 52-556): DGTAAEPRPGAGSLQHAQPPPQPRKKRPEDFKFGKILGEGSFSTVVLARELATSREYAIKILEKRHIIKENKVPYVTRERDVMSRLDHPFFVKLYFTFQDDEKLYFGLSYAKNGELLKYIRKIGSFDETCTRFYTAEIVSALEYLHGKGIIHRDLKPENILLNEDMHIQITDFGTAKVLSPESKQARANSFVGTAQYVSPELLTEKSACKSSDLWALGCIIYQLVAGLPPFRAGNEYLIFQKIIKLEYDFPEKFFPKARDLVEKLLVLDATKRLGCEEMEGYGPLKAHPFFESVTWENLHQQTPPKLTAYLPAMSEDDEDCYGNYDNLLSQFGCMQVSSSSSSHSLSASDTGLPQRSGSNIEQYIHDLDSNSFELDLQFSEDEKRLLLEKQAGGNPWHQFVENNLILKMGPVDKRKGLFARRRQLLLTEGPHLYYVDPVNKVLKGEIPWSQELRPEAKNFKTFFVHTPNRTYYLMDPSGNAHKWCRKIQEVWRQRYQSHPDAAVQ
The experiment can be described thus: PDK1 kinase assay III (with Tween 20). Particulars: compound at 10 μM; PDK1 kinase assay III (values without asterisk); read-out: % CTL (residual activity of the enzyme relative to DMSO control). The experiment is classed as biochemical. An outline of the steps: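 Started with ATP, incubated 90 min at ambient temperature, then stopped with phosphoric acid. Asterisked values come from assay II (24 h or 5 min incubation).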

On to `Cc1c(C(=O)NCC#Cc2ccc3c(-c4ccco4)n[nH]c3c2)c(=O)n(Cc2ccc(F)c(F)c2)n1C` [II-5, 2-(3,4-difluorobenzyl)-N-{3-[3-(furan-2-yl)-1H-indazol-6-yl]prop-2-yn-1-yl}-1,5-dimethyl-3-oxo-2,3-dihydro-1H-pyrazole-4-carboxamide], for which the remaining activity at 10 µM turned out to be 22.7%.

With `Cc1c(C(=O)NC/C=C\c2ccc3c(-c4ccco4)n[nH]c3c2)c(=O)n(Cc2ccc(F)c(F)c2)n1C` [II-6, 2-(3,4-difluorobenzyl)-N-{(2Z)-3-[3-(furan-2-yl)-1H-indazol-6-yl]prop-2-en-1-yl}-1,5-dimethyl-3-oxo-2,3-dihydro-1H-pyrazole-4-carboxamide], the remaining activity at 10 µM stood at 21.4%.

In the case of `Cc1c(C(=O)NC/C=C\c2ccc3cn[nH]c3c2)c(=O)n(Cc2ccc(F)c(F)c2)n1C` [II-7, 2-(3,4-difluorobenzyl)-N-[(2Z)-3-(1H-indazol-6-yl)prop-2-en-1-yl]-1,5-dimethyl-3-oxo-2,3-dihydro-1H-pyrazole-4-carboxamide], the remaining activity at 10 µM came to 27.4%. As for `Cc1c(C(=O)NCC#Cc2ccc3c(-c4ccc(CN(C)C)cc4)n[nH]c3c2)c(=O)n(Cc2ccc(F)c(F)c2)n1C` [II-8, 2-(3,4-difluorobenzyl)-N-[3-(3-{4-[(dimethylamino)methyl]phenyl}-1H-indazol-6-yl)prop-2-yn-1-yl]-1,5-dimethyl-3-oxo-2,3-dihydro-1H-pyrazole-4-carboxamide], the remaining activity at 10 µM stood at 16.5%.

As to `CN(C)Cc1ccc(-c2n[nH]c3cc(C#CCNC(=O)c4cncn(Cc5ccc(F)c(F)c5)c4=O)ccc23)cc1` [II-9, 1-(3,4-difluorobenzyl)-N-[3-(3-{4-[(dimethylamino)methyl]phenyl}-1H-indazol-6-yl)prop-2-yn-1-yl]-6-oxo-1,6-dihydropyrimidine-5-carboxamide], the remaining activity at 10 µM was determined as 10.7%. As to `Cc1c(C(=O)NCC#Cc2ccc3nc(Nc4ccccc4)ncc3c2)c(=O)n(Cc2ccc(F)c(F)c2)n1C` [III-15, 2-(3,4-difluorobenzyl)-1,5-dimethyl-3-oxo-N-{3-[2-(phenylamino)quinazolin-6-yl]prop-2-yn-1-yl}-2,3-dihydro-1H-pyrazole-4-carboxamide], the remaining activity at 10 µM came to 19.1%. For the compound `CN(C)Cc1ccc(Nc2ncc3cc(C#CCNC(=O)c4cncn(Cc5ccc(F)c(F)c5)c4=O)ccc3n2)cc1` [III-16, 1-(3,4-difluorobenzyl)-N-{3-[2-({4-[(dimethylamino)methyl]phenyl}amino)quinazolin-6-yl]prop-2-yn-1-yl}-6-oxo-1,6-dihydropyrimidine-5-carboxamide], the remaining activity at 10 µM is 9.5%. The figure for `CN(C)Cc1ccc(Nc2ncc3cc(C#CCNC(=O)c4nccn(Cc5ccc(F)c(F)c5)c4=O)ccc3n2)cc1` [III-17, 4-(3,4-difluorobenzyl)-N-{3-[2-({4-[(dimethylamino)methyl]phenyl}amino)quinazolin-6-yl]prop-2-yn-1-yl}-3-oxo-3,4-dihydropyrazine-2-carboxamide] is 13.7%; for `Cc1c(C(=O)NCC#Cc2ccc3nc(Nc4ccc(CN(C)C)cc4)ncc3c2)c(=O)n(Cc2ccccc2)n1C` [III-18, 2-benzyl-N-{3-[2-({4-[(dimethylamino)methyl]phenyl}amino)quinazolin-6-yl]prop-2-yn-1-yl}-1,5-dimethyl-3-oxo-2,3-dihydro-1H-pyrazole-4-carboxamide] it is 14.7%.

Consider `O=C(NC/C=C/c1cc(OC2CCNCC2)c2nc(Nc3ccccc3)ncc2c1)c1cncn(Cc2ccc(F)c(F)c2)c1=O` [III-19, 1-(3,4-difluorobenzyl)-6-oxo-N-{(2E)-3-[2-(phenylamino)-8-(piperidin-4-yloxy)quinazolin-6-yl]prop-2-en-1-yl}-1,6-dihydropyrimidine-5-carboxamide], for which the remaining activity at 10 µM turned out to be 17.5%. Take `Cc1c(C(=O)NCC#Cc2ccc3nc(Nc4ccc(CN(C)C)cc4)ncc3c2)c(=O)n(Cc2ccc(F)c(F)c2)n1C` [III-20, 2-(3,4-difluorobenzyl)-N-{3-[2-({4-[(dimethylamino)methyl]phenyl}amino)-quinazolin-6-yl]prop-2-yn-1-yl}-1,5-dimethyl-3-oxo-2,3-dihydro-1H-pyrazole-4-carboxamide]: the remaining activity at 10 µM is 13.7%. With `Cn1c(=O)c(C#CCNC(=O)c2cncn(Cc3ccc(F)c(F)c3)c2=O)cc2cnc(Nc3ccccc3)nc21` [III-22, 1-(3,4-difluorobenzyl)-N-{3-[8-methyl-7-oxo-2-(phenylamino)-7,8-dihydropyrido-[2,3-d]pyrimidin-6-yl]prop-2-yn-1-yl}-6-oxo-1,6-dihydropyrimidine-5-carboxamide], the remaining activity at 10 µM was found to be 24.9%. Consider `CN(C)Cc1ccc(Nc2ncc3c(F)c(C#CCNC(=O)c4cncn(Cc5ccc(F)c(F)c5)c4=O)ccc3n2)cc1` [III-24, 1-(3,4-difluorobenzyl)-N-{3-[2-({4-[(dimethylamino)methyl]phenyl}amino)-5-fluoroquinazolin-6-yl]prop-2-yn-1-yl}-6-oxo-1,6-dihydropyrimidine-5-carboxamide], for which the remaining activity at 10 µM worked out at 8.9%. On to `Cc1c(C(=O)NCC#Cc2ccc3nc(Nc4ccc(CN(C)C)cc4)ncc3c2F)c(=O)n(Cc2ccc(F)c(F)c2)n1C` [III-25, 2-(3,4-difluorobenzyl)-N-{3-[2-({4-[(dimethylamino)methyl]phenyl}amino)-5-fluoroquinazolin-6-yl]prop-2-yn-1-yl}-1,5-dimethyl-3-oxo-2,3-dihydro-1H-pyrazole-4-carboxamide], for which the remaining activity at 10 µM worked out at 11.7%. Turning to `CN1CCC(N(C)c2ccc(Nc3ncc4c(F)c(C#CCNC(=O)c5cncn(Cc6ccc(F)c(F)c6)c5=O)ccc4n3)cc2)CC1` [III-26, 1-(3,4-difluorobenzyl)-N-{3-[5-fluoro-2-({4-[methyl(1-methylpiperidin-4-yl)amino]phenyl}amino)quinazolin-6-yl]prop-2-yn-1-yl}-6-oxo-1,6-dihydropyrimidine-5-carboxamide], the remaining activity at 10 µM was determined as 12.4%. `Cc1c(C(=O)NCC#Cc2ccc3nc(Nc4ccc(N(C)C5CCN(C)CC5)cc4)ncc3c2F)c(=O)n(Cc2ccc(F)c(F)c2)n1C` [III-27, 2-(3,4-difluorobenzyl)-N-{3-[5-fluoro-2-({4-[methyl(1-methylpiperidin-4-yl)amino]phenyl}amino)quinazolin-6-yl]prop-2-yn-1-yl}-1,5-dimethyl-3-oxo-2,3-dihydro-1H-pyrazole-4-carboxamide]: the remaining activity at 10 µM was 12.8%. On to `Cc1c(C#CCNC(=O)c2cncn(Cc3ccc(F)c(F)c3)c2=O)c(=O)n(C(C)C)c2nc(Nc3ccc(N4CCOCC4)cc3)ncc12` [III-29, 1-(3,4-difluorobenzyl)-N-{3-[5-methyl-2-{[4-(morpholin-4-yl)phenyl]amino}-7-oxo-8-(propane-2-yl)-7,8-dihydropyrido[2,3-d]pyrimidin-6-yl]prop-2-yn-1-yl}-6-oxo-1,6-dihydropyrimidine-5-carboxamide], for which the remaining activity at 10 µM was found to be 16.4%. The figure for `CN1CCC(N(C)c2ccc(Nc3ncc4cc(C#CCNC(=O)c5cncn(Cc6ccc(F)c(F)c6)c5=O)ccc4n3)cc2)CC1` [III-30, 1-(3,4-difluorobenzyl)-N-{3-[2-({4-[methyl(1-methylpiperidin-4-yl)amino]phenyl}amino)quinazolin-6-yl]prop-2-yn-1-yl}-6-oxo-1,6-dihydropyrimidine-5-carboxamide] is 11.4%; for `Cc1c(C(=O)NCC#Cc2ccc3nc(Nc4ccc(NC5CCN(C)CC5)c(F)c4)ncc3c2)c(=O)n(Cc2ccc(F)c(F)c2)n1C` [III-32, 2-(3,4-difluorobenzyl)-N-{3-[2-({3-fluoro-4-[(1-methylpiperidin-4-yl)amino]phenyl}amino)quinazolin-6-yl]prop-2-yn-1-yl}-1,5-dimethyl-3-oxo-2,3-dihydro-1H-pyrazole-4-carboxamide] it is 13.1%. Consider `CN1CCC(Nc2ccc(Nc3ncc4cc(C#CCNC(=O)c5cn(C)c(=O)n(Cc6ccc(F)c(F)c6)c5=O)ccc4n3)cc2F)CC1` [III-33, 3-(3,4-difluorobenzyl)-N-{3-[2-({3-fluoro-4-[(1-methylpiperidin-4-yl)amino]phenyl}amino)quinazolin-6-yl]prop-2-yn-1-yl}-1-methyl-2,4-dioxo-1,2,3,4-tetrahydropyrimidine-5-carboxamide], for which the remaining activity at 10 µM was 22.8%.

With `CN1CCC(N(C)c2ccc(Nc3ncc4cc(C#CCNC(=O)c5nccn(Cc6ccc(F)c(F)c6)c5=O)ccc4n3)cc2)CC1` [III-34, 4-(3,4-difluorobenzyl)-N-{3-[2-({4-[methyl(1-methylpiperidin-4-yl)amino]phenyl}amino)quinazolin-6-yl]prop-2-yn-1-yl}-3-oxo-3,4-dihydropyrazine-2-carboxamide], the remaining activity at 10 µM worked out at 10.7%. With `CN1CCC(Nc2ccc(Nc3ncc4cc(C#CCNC(=O)c5nccn(Cc6ccc(F)c(F)c6)c5=O)ccc4n3)cc2F)CC1` [III-35, 4-(3,4-difluorobenzyl)-N-{3-[2-({3-fluoro-4-[(1-methylpiperidin-4-yl)amino]-phenyl}amino)quinazolin-6-yl]prop-2-yn-1-yl}-3-oxo-3,4-dihydropyrazine-2-carboxamide], the remaining activity at 10 µM worked out at 14.9%.
